# Source: patent publication US12202843B2, “Muscarinic receptor agonists” (Nxera Pharma UK Limited, priority 2014, dated 2025)
# Assays:
# [1] = molecular target: T1, human muscarinic M1 receptor (Homo sapiens, UniProt P11229); test: Alphascreen Surefire phospho-ERK1/2 functional assay, M1; format: cell-based; settings: for EC50: CHO cells stably expressing human M1, read-out: pEC50 M1 (converted); for Emax: CHO, read-out: % Emax cf. ACh, M1, CHO cells stably expressing human M1, relative to ACh; for % Emax cf. ACh, M1: CHO cells stably expressing human M1, relative to ACh
# T1 sequence (P11229 1-460): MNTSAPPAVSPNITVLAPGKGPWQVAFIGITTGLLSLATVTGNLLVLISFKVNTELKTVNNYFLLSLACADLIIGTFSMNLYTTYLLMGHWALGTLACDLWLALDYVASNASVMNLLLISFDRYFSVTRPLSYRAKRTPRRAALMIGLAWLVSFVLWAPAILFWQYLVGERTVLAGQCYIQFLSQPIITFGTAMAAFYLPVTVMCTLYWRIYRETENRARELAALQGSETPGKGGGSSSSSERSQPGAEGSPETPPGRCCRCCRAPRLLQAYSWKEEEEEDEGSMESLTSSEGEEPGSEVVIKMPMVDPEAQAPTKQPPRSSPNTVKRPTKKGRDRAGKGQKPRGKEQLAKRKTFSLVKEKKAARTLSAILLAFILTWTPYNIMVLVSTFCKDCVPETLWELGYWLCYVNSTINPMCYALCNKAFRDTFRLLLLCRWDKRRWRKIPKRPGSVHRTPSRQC
# Procedure: (§1) ERK1/2 phosphorylation is a downstream consequence of both Gq/11 and Gi/o protein coupled receptor activation, making it highly suitable for the assessment of M1, M3 (Gq/11 coupled) and M2, M4 receptors (Gi/o coupled), rather than using different assay formats for different receptor subtypes. CHO cells stably expressing the human muscarinic M1, M2, M3 or M4 receptor were plated (25K/well) onto 96-well tissue culture plates in MEM-alpha+10% dialysed FBS. Once adhered, cells were serum-starved overnight. Agonist stimulation was performed by the addition of 5 μL agonist to the cells for 5 min (37° C.). Media was removed and 50 μL of lysis buffer added. […] Plates were incubated for 2 h with gentle agitation in the dark and then read on a PHERAstar plate reader.
# (§2) pEC50 and Emax figures were calculated from the resulting data for each receptor subtype.
# [2] = molecular target: T2, human muscarinic M4 receptor (Homo sapiens, UniProt P08173); test: Alphascreen Surefire phospho-ERK1/2 functional assay, M4; format: cell-based; settings: for EC50: CHO cells stably expressing human M4, read-out: pEC50 M4 (converted); for Emax: CHO, read-out: % Emax cf. ACh, M4, CHO cells stably expressing human M4, relative to ACh; for % Emax cf. ACh, M4: CHO cells stably expressing human M4, relative to ACh
# T2 construct: expressed in transfected cells
# T2 sequence (P08173 1-479): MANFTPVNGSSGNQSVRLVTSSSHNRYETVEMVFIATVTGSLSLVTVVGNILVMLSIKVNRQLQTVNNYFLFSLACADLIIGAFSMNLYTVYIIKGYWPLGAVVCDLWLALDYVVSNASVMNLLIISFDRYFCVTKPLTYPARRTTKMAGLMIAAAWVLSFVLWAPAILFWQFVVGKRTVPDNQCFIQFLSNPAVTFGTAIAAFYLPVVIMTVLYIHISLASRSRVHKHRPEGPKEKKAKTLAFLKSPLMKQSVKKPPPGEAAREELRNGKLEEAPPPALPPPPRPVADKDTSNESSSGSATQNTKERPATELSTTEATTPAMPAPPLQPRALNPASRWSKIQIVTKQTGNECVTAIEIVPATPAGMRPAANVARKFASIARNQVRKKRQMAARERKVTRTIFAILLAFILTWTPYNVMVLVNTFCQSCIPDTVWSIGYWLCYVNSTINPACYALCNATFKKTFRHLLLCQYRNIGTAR
# Procedure: as §1, §2
SMILES,EC50 [1] [nM],Emax [1] [%],EC50 [2] [nM],Emax [2] [%],further results
"CCOC(=O)N1[C@@H]2CC[C@H]1CC(N1CCC3(CC1)OC(=O)NC3Cc1ccccn1)C2 (mixture of isomers) [Example 2-23, ethyl-3-(2-oxo-4-(pyridin-2-ylmethyl)-1-oxa-3,8-diazaspiro[4.5]decan-8-yl)-8-azabicyclo[3.2.1]octane-8-carboxylate]",501,86,> 20000,12,
"COC(=O)N1C2CCC1CC(N1CCC3(CC1)CNC(=O)C3)C2 (single isomer, unassigned) [Example 2-1 Isomer 2]",631,72,1580,25,
"O=C1CC2(CCN(C3CC4CCC(C3)N4C(=O)OCCF)CC2)CN1 (single isomer, unassigned) [Example 2-3 Isomer 1]",398,,2000,,"% Emax cf. ACh, M1 ([1]; listed as 2-3 Isomer 1): 85%; % Emax cf. ACh, M4 ([2]; listed as 2-3 Isomer 1): 47%"
"CCCC(=O)N1C2CCC1CC(N1CCC3(CC1)CNC(=O)C3)C2 (single isomer, unassigned) [Example 2-6 Isomer 2]",501,35,15800,32,
"CCOC(=O)N1C2CCC1C(F)C(N1CCC3(CC1)CNC(=O)C3)C2 (single isomer, unassigned) [Example 2-11 Isomer 1]",631,95,1000,53,
"CCOC(=O)N1C2CCC1CC(N1CCC3(CC1)CNC(=O)O3)C2 (single isomer, unassigned) [Example 2-14 Isomer 1]",200,108,501,55,
"CCOC(=O)N1C2CCC1CC(N1CCC3(CC1)OC(=O)NC3C)C2 (single isomer, unassigned) [Example 2-15 Isomer 1]",100,101,> 20000,10,
"CCOC(=O)N1C2CCC1CC(N1CCC3(CC1)OC(=O)NC3CC)C2 (single isomer, unassigned) [Example 2-16 Isomer 2]",631,,200,,"% Emax cf. ACh, M1 ([1]; listed as 2-16 Isomer 2): 68%; % Emax cf. ACh, M4 ([2]; listed as 2-16 Isomer 2): 51%"
"CCOC(=O)N1C2CCC1CC(N1CCC3(CC1)OC(=O)NC3(C)C)C2 (single isomer, unassigned) [Example 2-18 Isomer 1]",251,55,> 20000,11,
"CCOC(=O)N1C2CCC1C(F)C(N1CCC3(CC1)CNC(=O)O3)C2 (single isomer, unassigned) [Example 2-19 Isomer 2]",1000,94,3980,74,
"CCOC(=O)N1C2CCC1CC(N1CCC3(CC1)CC(=O)N(C(C)C)C3)C2 (single isomer, unassigned) [Example 2-26 Isomer 2]",631,43,631,22,
"CCOC(=O)N1C2CCC1CC(N1CCC3(CC1)CC(=O)N(CC(C)C)C3)C2 (single isomer, unassigned) [Example 2-27 Isomer 2]",398,38,> 20000,14,
"CCOC(=O)N1C2CCC1CC(N1CCC3(CC1)CC(=O)N(CC1CC1)C3)C2 (single isomer, unassigned) [Example 2-28 Isomer 2]",501,57,316,27,
"[2H]C([2H])(C)OC(=O)N1C2CCC1CC(N1CCC3(CC1)CNC(=O)C3)C2 (single isomer, unassigned) [Example 2-30 Isomer 1, (1,1-^2H2)ethyl 3-(3-oxo-2,8-diazaspiro[4.5]dec-8-yl)-8-azabicyclo[3.2.1]octane-8-carboxylate]",126,,200,49,"% Emax cf. ACh, M1 ([1]; listed as 2-30 Isomer 1): 107%"
"[2H]C([2H])([2H])COC(=O)N1C2CCC1CC(N1CCC3(CC1)CNC(=O)C3)C2 (single isomer, unassigned) [Example 2-31 Isomer 1]",126,,251,,"% Emax cf. ACh, M1 ([1]; listed as 2-31 Isomer 1): 112%; % Emax cf. ACh, M4 ([2]; listed as 2-31 Isomer 1): 53%"
"CC(C)OC(=O)N1C2CCC1CC(N1CCC3(CC1)CNC(=O)C3)C2 (single isomer, unassigned) [Example 2-33 Isomer 1]",31.6,,200,20,"% Emax cf. ACh, M1 ([1]; listed as 2-33 Isomer 1): 37%"
"CC(C)OC(=O)N1C2CCC1CC(N1CCC3(CC1)CNC(=O)C3)C2 (single isomer, unassigned) [Example 2-33 Isomer 2]",398,,316,,"% Emax cf. ACh, M1 ([1]; listed as 2-33 Isomer 2): 62%; % Emax cf. ACh, M4 [2]: 25%"
"CSC(=O)N1C2CCC1CC(N1CCC3(CC1)CNC(=O)C3)C2 (single isomer, unassigned) [Example 2-34 Isomer 1]",501,50,> 20000,8,
"CCSC(=O)N1C2CCC1CC(N1CCC3(CC1)CNC(=O)C3)C2 (single isomer, unassigned) [Example 2-35 Isomer 1]",39.8,,> 20000,7,"% Emax cf. ACh, M1 ([1]; listed as 2-35 Isomer 1): 24%"
"CCSC(=O)N1C2CCC1CC(N1CCC3(CC1)CNC(=O)C3)C2 (single isomer, unassigned) [Example 2-35 Isomer 2]",794,,,,"% Emax cf. ACh, M1 ([1]; listed as 2-35 Isomer 2): 50%; % Emax cf. ACh, M4 [2]: 10%"
"CCOC(=O)N1CC2CCC1CC2N1CCC2(CC1)CNC(=O)C2 (single isomer, unassigned) [Example 3-1 Isomer 4, ethyl 5-(3-oxo-2,8-diazaspiro[4.5]dec-8-yl)-2-azabicyclo[2.2.2]octane-2-carboxylate]",1260,,> 20000,,"% Emax cf. ACh, M1 ([1]; listed as 3-1 Isomer 4): 62%; % Emax cf. ACh, M4 ([2]; listed as 3-1 Isomer 4): 7%"
"CCOC(=O)N1CC2CCC1CC2N1CCC2(CC1)CNC(=O)O2 (single isomer, unassigned) [Example 3-2 Isomer 1, ethyl 5-(2-oxo-1-oxa-3,8-diazaspiro[4.5]dec-8-yl)-2-azabicyclo[2.2.2]octane-2-carboxylate]",251,111,1260,29,
"CCOC(=O)N1CC2CCC1CC2N1CCC2(CC1)CNC(=O)O2 (single isomer, unassigned) [Example 3-2 Isomer 2, ethyl 5-(2-oxo-1-oxa-3,8-diazaspiro[4.5]dec-8-yl)-2-azabicyclo[2.2.2]octane-2-carboxylate]",100,,398,,"% Emax cf. ACh, M1 [1]: 127%; % Emax cf. ACh, M4 [2]: 36%"
"CCOC(=O)N1CC2CCC1CC2N1CCC2(CC1)OC(=O)NC2CC (single isomer, unassigned) [Example 3-3 Isomer 2, ethyl 5-(4-ethyl-2-oxo-1-oxa-3,8-diazaspiro[4.5]dec-8-yl)-2-azabicyclo[2.2.2]octane-2-carboxylate]",794,76,316,56,
"CCOC(=O)N1CC2CCC(C1)C2N1CCC2(CC1)CNC(=O)C2 (single isomer, unassigned) [Example 4-1 Isomer 2]",501,36,> 20000,3,
